The series is described as follows: GHS categories as the set defines them, by LD50: 1 up to 5, 2 up to 50, 3 up to 300, 4 up to 2000, 5 above 2000 mg/kg. Particulars: rat; in vivo; po.

In turn, `CC(C)C1=CC23CCC4C(C)(C(=O)N5CCN(CCO)CC5)CCCC4(C)C2CC1C1C(=O)OC(=O)C13` (configuration not stated) had a GHS category of 5.

`CCCCCCc1ccc(OP(=O)(Oc2ccccc2)Oc2ccccc2)cc1` gave a GHS category of 5. As to `CC(=O)OCC(=O)[C@@]1(OC(C)=O)[C@@H](C)C[C@H]2[C@@H]3C[C@H](F)C4=CC(=O)C=C[C@]4(C)[C@@]3(F)[C@@H](O)C[C@@]21C`, the GHS category is 5. With `N[C@@H]1CONC1=O` the figure was 5. `Cc1cccc2ncc(C(=O)NC(C)C)c(=O)n12` gave a GHS category of 3.

For the compound `O=C(Nc1cc(Cl)c(NC(=O)c2cc3ccccc3c(N=Nc3cc(Cl)ccc3Cl)c2O)cc1Cl)c1cc2ccccc2c(N=Nc2cc(Cl)ccc2Cl)c1O`, the GHS category is given as 5.

The compound `CCCCCCCCCCCCCC(=O)N[C@@H](CCC(=O)O)C(=O)O` yielded a GHS category of 5. With `CCCCn1cc2c3c(cccc31)[C@@]1(OC)C[C@@H](COC(=O)c3cncc(Br)c3)CN(C)[C@@H]1C2` the figure was 4; with `CCCC(=O)O[C@]1(C(=O)CO)CC[C@H]2[C@@H]3CCC4=CC(=O)CC[C@]4(C)[C@H]3[C@@H](O)C[C@@]21C`, 5; with `OCC(CO)(CO)COCC(CO)(CO)CO`, 5. `COC1=C(OC)C(=O)C(CC=C(C)CCC=C(C)CCC=C(C)CCC=C(C)CCC=C(C)CCC=C(C)CCC=C(C)CCC=C(C)CCC=C(C)C)=C(C)C1=O` came in with a GHS category of 5. With `C/C=C\[C@@H]1[C@@H](C(=O)OCc2c(F)c(F)c(COC)c(F)c2F)C1(C)C` the figure was 5.

Turning to `CC(C)(C)OOC(C)(C)CCC(C)(C)OOC(C)(C)C`, the GHS category was 5. `Nc1cc(S(=O)(=O)O)c2cc(S(=O)(=O)O)cc(S(=O)(=O)O)c2c1` displayed a GHS category of 5. Take `O=C(CCc1ccc2c(c1)OCO2)C1C(=O)CC(c2ccccc2)CC1=O` (configuration not stated): the GHS category was found to be 5. With `CC(C)(CO)c1cc(Cl)nnc1Cl` the figure was 4. With `CCOP(=S)(OCC)ON=C(C#N)c1ccccc1Cl` the figure was 5. With `CCOCCN(Cc1ccc(Oc2ccc([N+](=O)[O-])cc2)cc1)C(=O)C(Cl)Cl` the figure was 5; with `CCCCCCC(O)CO` (configuration not stated), 5. Compound `CCC(C)(C)OC(=O)N[C@@H](Cc1c[nH]c2ccccc12)C(=O)N[C@@H](CCSC)C(=O)N[C@@H](CC(=O)O)C(=O)N[C@@H](Cc1ccccc1)C(N)=O` had a GHS category of 5.

For the compound `COc1ccc(OC)c(C=O)c1`, the GHS category is 5.

As to `CN(C)Cc1ccccc1Cl`, the GHS category came out at 4.

`Nc1nc(=O)[nH]cc1F` came in with a GHS category of 5. With `CCCN[C@H]1CCc2nc(N)sc2C1` the figure was 4; with `CC(=O)Nc1ccc(S(=O)(=O)O)c2cc(S(=O)(=O)O)c(/N=N/c3ccc(/N=N/c4ccc(S(=O)(=O)O)cc4)c4ccc(S(=O)(=O)O)cc34)c(O)c12`, 5. With `Oc1ccc(C(O)CNCCCCCCNCC(O)c2ccc(O)c(O)c2)cc1O` (configuration not stated) the figure was 5; with `Cc1c(C)c2c(c(C)c1O)CCC(C)(CCCC(C)CCCC(C)CCCC(C)C)O2` (racemic), 5; with `CCCCCCCCCCCC`, 5. With `COc1cc(C=CC(=O)CC(=O)C=Cc2ccc(O)c(OC)c2)ccc1O` the figure was 5; with `C=CC1CCC(C2CCC(CCC)CC2)CC1` (configuration not stated), 5. Regarding `C=CC=CC=CC=CC=CC=CC=CC`, the GHS category came to 5. With `CCCCOC(=O)c1ccccc1N` the figure was 5; with `NCCNS(=O)(=O)c1cccc2cnccc12`, 4. Consider `Nc1ccc(C(=O)O)cc1`, for which the GHS category came out at 5.

Consider `CC(O)COC(=O)c1c(Br)c(Br)c(Br)c(Br)c1C(=O)OCCOCCO` (configuration not stated), for which the GHS category is listed as 5. With `Cc1ccc2oc(C=Cc3nc4cc(C)ccc4o3)nc2c1` the figure was 5; with `COC(=O)CCCCCCCCC(=O)OC`, 5. For `O=C(O)CCC(CC(=O)O)(C(=O)O)P(=O)(O)O` (configuration not stated), the GHS category is recorded as 5. With `CCCCC1=NC2(CCCC2)C(=O)N1Cc1ccc(-c2ccccc2C#N)cc1` the figure was 5; with `CSC`, 4; with `C=C(C)C(=O)O[Si](C(C)C)(C(C)C)C(C)C`, 5. Compound `COC(=O)C1=C(C)NC(C)=C(C(=O)OC2COC3C(O)COC23)C1c1cccc([N+](=O)[O-])c1` (configuration not stated) had a GHS category of 5. The compound `CC(=CCc1c(O)c(Cl)c(C)c(C=O)c1O)CCC=C(C)[C@@H]1CC(=O)C(C)(C)O1` gave a GHS category of 5.

As to `CCCCCCCC/C=C\CCCCCCCC(=O)OCC(COC(=O)CCCCCCC/C=C\CCCCCCCC)OC(=O)CCCCCCC/C=C\CCCCCCCC`, the GHS category is on record as 5. With `Cc1cc(C)c(C(=O)P(=O)(C(=O)c2c(C)cc(C)cc2C)c2ccccc2)c(C)c1`, the GHS category was 5. With `CC1CCCCCCCCCCCCC(=O)C1` (configuration not stated) the figure was 5; with `COc1ccc(C2c3ccc(OC)cc3CCN2c2ccccc2)cc1` (configuration not stated), 4; with `Cn1c2cc(C(F)(F)F)ccc2c2oc(C(=O)NCCCN3CCCCC3)cc21`, 4. `CC1=CC2[C@@H](C(=O)O1)C2(C)C` (some centres not stated) yielded a GHS category of 5. With `C=CCNC(=O)Oc1cccc2c1OC(C)(C)O2` the figure was 4; with `C[C@H]1CO[C@@](Cn2ccnc2)(c2cc3cc(Cl)cc(Cl)c3o2)O1`, 4. With `CCCC(C)C=O` (configuration not stated) the figure was 5; with `OCCCOc1nn(-c2cccc(C(F)(F)F)c2)c2ncccc12`, 4; with `COc1ccc2cc3[n+](cc2c1OC)CCc1cc2c(cc1-3)OCO2`, 5. The compound `COC[C@H]1CO[C@@](Cn2ccnc2)(c2cc3cc(Cl)cc(Cl)c3o2)O1` showed a GHS category of 4. `Nc1ccc(S(=O)(=O)c2ccc(NCCO)cc2)cc1` registered a GHS category of 5. Compound `C#CCN1C(=O)COc2cc(F)c(N3C(=O)C4=C(CCCC4)C3=O)cc21` returned a GHS category of 5.

Turning to `CC(C)(O/N=C(\C(=O)N[C@@H]1C(=O)N2C(C(=O)[O-])=C(C[n+]3ccccc3)CS[C@H]12)c1csc(N)n1)C(=O)O`, the GHS category was 5.

For `C/C=C(\C)C(=O)O[C@H]1C[C@@H](OC(C)=O)[C@@]2(C(=O)OC)CO[C@H]3[C@@H](O)[C@@](C)([C@]45O[C@@]4(C)[C@H]4C[C@@H]5O[C@@H]5OC=C[C@@]54O)[C@H]4[C@]1(CO[C@]4(O)C(=O)OC)[C@@H]32`, the GHS category was 5.

`O=P(Oc1ccccc1)(Oc1ccccc1)Oc1ccccc1-c1ccccc1` had a GHS category of 5.

On to `C#CCNC(=O)Oc1cccc2c1OC(C)(C)O2`, for which the GHS category worked out at 3. With `CC(=O)Nc1ccc2cc(S(=O)(=O)O)c(N=Nc3ccc(S(=O)(=O)CCOS(=O)(=O)O)cc3)c(O)c2c1` the figure was 5. With `Cc1cc(C)c(C2=C(OC(=O)CC(C)(C)C)C3(CCCC3)OC2=O)c(C)c1` the figure was 5; with `COc1cccc(C(=O)NN(C(=O)c2cc(C)cc(C)c2)C(C)(C)C)c1C`, 5. With `C=CC(=C)CCC=C(C)C` the figure was 5. The compound `CC(=O)OC1C=CC(C)=CCC(O)C=CC(C)=CC(NC(=O)C(C)=O)C2(C)C(=O)OC(C1)C(C)C2=O` (configuration not stated) registered a GHS category of 5. With `CC(OC(=O)ON1C(=O)CCC1=O)OC(=O)C(C)C` (configuration not stated) the figure was 4; with `CCCCOC(=O)CCP1(=O)Oc2ccccc2-c2ccccc21` (configuration not stated), 5. With `FC(F)(F)C(F)(F)C(F)(F)C(F)(F)N(C(F)(F)C(F)(F)C(F)(F)C(F)(F)F)C(F)(F)C(F)(F)C(F)(F)C(F)(F)F` the figure was 5; with `CCCCCCCCCCCCCCCCCC`, 5; with `CCOC(=O)C(C)(C)c1ccccc1`, 5. Take `COc1cc(CC2NCCc3cc(O)c(O)cc32)cc(OC)c1OC` (configuration not stated): the GHS category is listed as 5.

For `CNC(=O)C(=NNc1ccc(OC)cc1)C(C)=O`, the GHS category worked out at 5.

In turn, `CCc1cccc(OP(=O)(Oc2cccc(CC)c2)Oc2cccc(CC)c2)c1` returned a GHS category of 5.

Turning to `CO[C@H]1C=CO[C@@]2(C)Oc3c(C)c(O)c4c(O)c(c5c(nc6cc(C)ccn65)c4c3C2=O)NC(=O)C(C)=CC=C[C@H](C)[C@H](O)[C@@H](C)[C@@H](O)[C@@H](C)[C@H](OC(C)=O)[C@@H]1C`, the GHS category came out at 5. Take `CCOC(=O)c1ocnc1C`: the GHS category was determined as 5. With `CC(C)=CCCC(C)CCOC(=O)Cc1ccccc1` (configuration not stated) the figure was 5; with `CN1C(=O)C(C)(C)Oc2cc(C(=O)c3ccccc3)ccc21`, 5; with `CC1(C)S[C@@H]2[C@H](N3C(=O)C(c4ccccc4)NC3(C)C)C(=O)N2[C@H]1C(=O)O` (some centres not stated), 5. `Cc1ccc(OP(=O)(Oc2ccc(C)cc2C)Oc2ccc(C)cc2C)c(C)c1` displayed a GHS category of 5. Compound `O=c1nc(Cl)nc(Cl)[nH]1` returned a GHS category of 5. `CCCCCCOc1ccccc1C(N)=O` showed a GHS category of 5. With `C[C@]12CC[C@H]3[C@@H](CC[C@@]45O[C@@H]4C(O)=C(C#N)C[C@]35C)[C@@H]1CC[C@@H]2O` the figure was 5. With `C=CC(=O)OCCOCC(CC)(COCCOC(=O)C=C)COCCOC(=O)C=C` the figure was 5; with `CC(C)(C)c1ccc(OP(=O)(Oc2ccccc2)Oc2ccccc2)cc1`, 5.

Consider `NC1=NCC2c3ccccc3Cc3ccccc3N12` (configuration not stated), for which the GHS category was found to be 4. With `CCCCCCCCCCBr` the figure was 5; with `N#Cc1c[nH]cc1-c1cccc(Cl)c1Cl`, 5; with `NCCCN(CCO)CCO`, 5. As for `CCCCCCCCCCCCCCCCBr`, the GHS category was determined as 5. With `COc1cccc(OC)c1C(=O)O` the figure was 4; with `OC1c2ccccc2CCc2ccncc21` (configuration not stated), 5.

The values are drawn from the CATMoS acute toxicity set (Mansouri et al. 2021).
